The record followed here is patent US7776922B2, “Substituted [(phenylethanoyl)amino]benzamides” (Bayer Schering Pharma Aktiengesellschaft, priority 2004, dated 2010).

SMILES strings stand for the structures.

The target in the test is T1, human IL8B receptor (Homo sapiens, UniProt P25025).
T1 construct: expressed in transfected cells; host or cells: CHO cells with mitochondrially localized aequorin, co-transfected with G-alpha-16
T1 sequence (P25025 1-360): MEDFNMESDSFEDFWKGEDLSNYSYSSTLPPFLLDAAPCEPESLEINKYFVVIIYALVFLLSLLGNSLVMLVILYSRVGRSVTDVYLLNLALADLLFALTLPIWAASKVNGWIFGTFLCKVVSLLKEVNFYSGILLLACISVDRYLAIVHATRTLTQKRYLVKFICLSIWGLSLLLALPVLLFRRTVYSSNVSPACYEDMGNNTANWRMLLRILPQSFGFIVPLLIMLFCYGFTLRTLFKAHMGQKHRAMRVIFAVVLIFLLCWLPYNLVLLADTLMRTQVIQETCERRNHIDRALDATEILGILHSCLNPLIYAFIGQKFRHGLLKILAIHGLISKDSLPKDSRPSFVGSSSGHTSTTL
Nature of the test: Functional reporter assay for IL8B receptor antagonists (aequorin Ca2+ bioluminescence in transfected CHO cells). The note with it: CHO cells with mitochondrially localized aequorin, human IL8B receptor and G-alpha-16; inhibition of IL8-induced Ca2+ transient. Format: cell-based. From the text:
Functional Reporter Assay for High Throughput Screening of IL8B Receptor Antagonists
CHO cells with mitochondrially localized aequorin are stably transfected with the human IL8B receptor and the G-alpha-16 protein. Activation of the IL8B receptor with IL8 or an endogenous P2Y receptor with ATP leads to Ca^2+ release. This intracellular Ca^2+ transient can be detected by bioluminescence with mitochondrially localized aequorin. IL8-induced Ca^2+ transients are inhibited by IL8B receptor antagonists.
2000 cells in 25 μl of complete medium with 10% FCS per well of a 384-well multititer plate are incubated at 37° C. and 5% CO2 for 24 h. After removal of the medium, 30 μl of an 11.8 μM coelenterazine solution in 2 mM Ca-Tyrode are added, and the cells are incubated at 37° C. in 5% CO2 for a further 4 hours. 10 μl of test substance in 2 mM Ca-Tyrode/0.1% BSA are added, and the cells are incubated at room temperature for 5 minutes. The IL8B receptor is activated by adding 25 μl of a 0.78-2.6 nM IL8 solution in 2 mM Ca-Tyrode/0.1% BSA, or the endogenous P2Y receptor is activated by adding 25 μl of a 7.8-26 μM ATP solution in 2 mM Ca-Tyrode. The bioluminescence is recorded at the same time. IC50 values are calculated from dose-response plots using the Marquardt-Levenberg fit (Table A).

The molecule `CCOc1ccc2cc(-c3ccc(NC(=O)C(CC)c4ccccc4)cc3C(N)=O)ccc2c1` (stereo not shown) [Example 2, 2-(6-Ethoxy-2-naphthyl)-5-[(2-phenylbutanoyl)amino]benzamide] displayed an IC50 of 200 nM.
Turning to `CCC(C(=O)Nc1ccc(-c2cc3ccccc3s2)c(C(N)=O)c1)c1cccc(F)c1` (stereo not shown) [Example 30, 2-(1-Benzothien-2-yl)-5-{[2-(3-fluorophenyl)butanoyl]amino}benzamide], it took 77 nM to reach half-maximal inhibition (IC50).
Molecule `CCC(C(=O)Nc1ccc(-c2ccc3sccc3c2)c(C(N)=O)c1)c1ccccc1` (single isomer, unassigned) [Example 39-2, 2-(1-Benzothien-5-yl)-5-[(2-phenylbutanoyl)amino]benzamide] gave an IC50 of 64 nM.
Regarding `CCC(C(=O)Nc1ccc(-c2cc3ccccc3s2)c(C(N)=O)c1)c1ccc2c(c1)OCCO2` (stereo not shown) [Example 35, 2-(1-Benzothien-2-yl)-5-{[2-(2,3-dihydro-1,4-benzodioxin-6-yl)butanoyl]amino}benzamide], the midpoint of inhibition, the IC50, lay at 74 nM.
`CCC(C(=O)Nc1ccc(-c2cc3ccccc3s2)c(C(N)=O)c1)c1ccccc1` (single isomer, unassigned) [Example 1-2, 2-(1-Benzothien-2-yl)-5-[(2-phenylbutanoyl)amino]benzamide] displayed an IC50 of 100 nM.
To `CCC(C(=O)Nc1ccc(-c2ccc(-c3ccccc3)cc2)c(C(N)=O)c1)c1cccs1` (stereo not shown) [Example 29, 4-{[2-(2-Thienyl)butanoyl]amino}-1,1′:4′,1″-terphenyl-2-carboxamide] belongs 92 nM; to `CCC(C(=O)Nc1ccc(-c2cc3ccccc3s2)c(C(N)=O)c1)c1nccs1` (stereo not shown) [Example 26, 2-(1-Benzothien-2-yl)-5-{[2-(1,3-thiazol-2-yl)butanoyl]amino}benzamide], 82 nM.

The IC50 is the midpoint of a concentration-inhibition curve. A higher IC50 goes with weaker potency.
